Assays:
[1] = tested on: rats (monosodium-iodoacetate model of osteoarthritis); assay: monosodium-iodoacetate model of osteoarthritis: locomotor activity (total distance travelled)
[2] = systemically administered, Hirao et al. 2008, cited from earlier work
human delta receptor = human delta receptor (Homo sapiens, UniProt P41143); conditions: Ferrari et al. 2017; cited from earlier work
[3] = tested on: rats (acute thermal nociception); assay: tail flick assay, intrathecal administration; type: in vivo, rat; conditions: intrathecal 0.1, 1 or 10 μg on successive days, 1 hr post-drug, vs baseline and saline
Procedure: As a general matter, rats underwent implantation of a catheter for drug delivery into the lumbo-thoracic intrathecal space. A polyurethane catheter was inserted through an incision in the atlanto-occipital membrane and passed caudally to the lumbar level. The distal part of the catheter was exteriorized and connected to a Pinport access port (Instech). Each rat received a standard protocol of anesthesia and antibiotics. Patency checks of the catheter system were performed once weekly following surgeries using 0.02 mL of physiological saline continuing until completion of the dosing period. The Pinport was wiped with alcohol prior to any injection. A minimum of 9-10 days was allowed between surgery and the first dosing in order for the rats to recover fully from surgical trauma. Intrathecal injection of test items always involved the following procedure: test items were administered by slow bolus injection via the Pinport connected to the intrathecal catheter. The dose volume for each animal was fixed at 10 μL and injected slowly over duration of ˜5 minutes. Following dose administration, the catheter was flushed with 20 μL of physiological saline.
A Tail-Flick Analgesia Meter (Columbus Instruments) was used. […] Afterwards, baseline tail-flick latency was measured using a lamp intensity adjusted such that the baseline tail-flick latencies were in the 6-8 second range. […]

[4] = tested on: rats (monosodium-iodoacetate model of osteoarthritis); assay: monosodium-iodoacetate model of osteoarthritis: lameness (dynamic weight bearing); conditions: for lameness (% RL-% RR), early and late phase: intrathecal, 1 hr post-drug, vs intrathecal saline

Sequence of human delta receptor (P41143 whole entry): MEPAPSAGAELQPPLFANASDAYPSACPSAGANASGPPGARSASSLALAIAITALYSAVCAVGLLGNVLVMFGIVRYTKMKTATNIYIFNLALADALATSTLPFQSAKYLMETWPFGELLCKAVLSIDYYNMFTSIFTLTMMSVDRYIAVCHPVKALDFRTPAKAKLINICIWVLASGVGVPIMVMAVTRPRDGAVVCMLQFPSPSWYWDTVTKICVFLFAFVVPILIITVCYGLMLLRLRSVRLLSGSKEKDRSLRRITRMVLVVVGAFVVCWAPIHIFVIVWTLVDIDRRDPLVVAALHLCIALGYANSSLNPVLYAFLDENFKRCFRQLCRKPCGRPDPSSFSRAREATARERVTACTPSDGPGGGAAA

| SMILES | locomotor activity (total distance travelled), early phase ([1]; intrathecal 1 μg, vs intrathecal vehicle) | locomotor activity (total distance travelled), late phase ([1]; intrathecal 0.1, 1 or 10 μg, 0.1 and 10 μg reached statistical significance vs vehicle) | anxiolytic effects [2] | inhibition of memory or motor function [2] | sedative side effects ([2]; appear only at much higher doses than the effective anxiolytic dose range) | activation of the human delta receptor (human delta receptor) | tail-flick latency [3] | lameness, early phase ([4]; intrathecal 1 μg, Days 2-4, vs saline) | lameness, late phase, dose-response ([4]; intrathecal 0.1, 1 or 10 μg, Days 22-24) | lameness, late phase, 1 and 10 μg ([4]; intrathecal 1 and 10 μg, Days 22-24, vs saline) | lameness (% RL-% RR), early and late phase [4] | lameness, last two days of the late phase ([4]; intrathecal 15 μg, vs saline) |
| --- | --- | --- | --- | --- | --- | --- | --- | --- | --- | --- | --- | --- |
| CC1(N2CCC(n3c([C@@H]4CCCNC4)nc4ccccc43)CC2)CCCCCCC1 [MCOPPB, 1-[1-(1-methylcyclooctyl)-4-piperidinyl]-2-[(3R)-3-piperidinyl]-1H-benzimidazole] | did not change locomotor activity | appeared to restore locomotor activity to the level displayed by both treatment groups during the early phase | potent anxiolytic effects | no inhibition of memory or motor function | only slight sedative side effects | only a small amount | significantly, and dose-dependently, increased TF latencies | sufficient to reduce lameness significantly | dose-related effects | significantly reduced lameness | significantly reduced lameness levels |  |
| CN1CC[C@]23c4c5ccc(O)c4O[C@H]2[C@@H](O)C=C[C@H]3[C@H]1C5.O=S(=O)(O)O [morphine sulfate, reference compound] |  |  |  |  |  |  |  |  |  |  | significantly reduced lameness levels | statistical significance was not quite achieved |
